In assay [1] the target is T1, CHSY3-CHPF complex (Homo sapiens, UniProt Q70JA7).
T1 construct: secreted luminal part of both chains (TM helix removed), HEK Freestyle 293-F; N-terminal RPTP sigma signal, SUMO, His6 cut with 3C; C-terminal Avi (CHSY3), 3C site and twin-Strep (CHPF); heterodimer, expected 165 kDa; with Chondroitin sulfate synthase 2
T1 sequence (Q70JA7 157-882): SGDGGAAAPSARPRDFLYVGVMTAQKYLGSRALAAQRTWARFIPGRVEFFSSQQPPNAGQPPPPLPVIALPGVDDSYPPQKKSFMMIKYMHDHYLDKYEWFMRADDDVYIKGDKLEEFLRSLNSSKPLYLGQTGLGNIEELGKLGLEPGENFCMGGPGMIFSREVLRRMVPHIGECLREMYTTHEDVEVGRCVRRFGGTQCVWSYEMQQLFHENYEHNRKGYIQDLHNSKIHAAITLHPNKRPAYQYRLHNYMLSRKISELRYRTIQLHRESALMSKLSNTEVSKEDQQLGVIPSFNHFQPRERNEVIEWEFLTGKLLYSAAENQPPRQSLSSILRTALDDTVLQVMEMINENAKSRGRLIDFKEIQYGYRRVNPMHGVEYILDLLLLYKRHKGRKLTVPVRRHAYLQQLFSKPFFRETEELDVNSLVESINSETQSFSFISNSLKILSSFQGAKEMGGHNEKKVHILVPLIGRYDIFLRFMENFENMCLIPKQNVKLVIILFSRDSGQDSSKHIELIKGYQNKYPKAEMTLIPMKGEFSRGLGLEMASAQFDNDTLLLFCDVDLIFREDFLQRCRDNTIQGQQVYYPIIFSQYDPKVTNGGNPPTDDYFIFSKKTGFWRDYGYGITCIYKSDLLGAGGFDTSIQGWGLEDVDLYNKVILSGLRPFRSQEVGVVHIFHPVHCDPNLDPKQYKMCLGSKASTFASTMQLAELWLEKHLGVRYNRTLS
T1 sequence (Q8IZ52 81-775 partner): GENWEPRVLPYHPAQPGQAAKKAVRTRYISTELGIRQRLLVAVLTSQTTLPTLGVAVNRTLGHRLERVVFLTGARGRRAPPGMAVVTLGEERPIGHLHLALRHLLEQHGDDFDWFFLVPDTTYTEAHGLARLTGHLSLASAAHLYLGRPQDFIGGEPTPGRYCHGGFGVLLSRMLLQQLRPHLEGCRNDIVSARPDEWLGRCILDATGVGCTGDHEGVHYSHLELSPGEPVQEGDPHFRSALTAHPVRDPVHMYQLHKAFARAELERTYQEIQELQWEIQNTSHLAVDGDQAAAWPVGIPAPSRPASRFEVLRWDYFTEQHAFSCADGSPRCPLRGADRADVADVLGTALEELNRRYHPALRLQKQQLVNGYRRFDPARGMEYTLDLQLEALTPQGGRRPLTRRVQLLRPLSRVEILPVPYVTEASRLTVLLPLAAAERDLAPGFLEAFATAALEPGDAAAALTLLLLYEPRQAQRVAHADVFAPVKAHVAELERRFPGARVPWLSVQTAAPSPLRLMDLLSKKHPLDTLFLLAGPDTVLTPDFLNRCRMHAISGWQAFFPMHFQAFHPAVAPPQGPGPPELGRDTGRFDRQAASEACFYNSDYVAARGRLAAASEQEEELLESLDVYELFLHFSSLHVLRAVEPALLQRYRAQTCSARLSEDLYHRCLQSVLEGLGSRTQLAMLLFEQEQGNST
The assay is described as follows: cryo-EM structure, […] A. In kind it is binding. Particulars: 10 mM UDP, Mn2+, pH 6.5; bound in N-terminal GT31 (GlcA-T) active site of CHSY3.

Assay [2] has as its target T1, CHSY3-CHPF complex. The assay is described as follows: FACE gel glycosylation assay. It is filed as biochemical. Particulars: Mn2+ and Mg2+, pH 6.5, 30 C.
A further assay addresses T2, CHSY3-CHPF2 complex (Homo sapiens, UniProt Q70JA7).
T2 construct: secreted luminal part of both chains (TM helix removed), HEK Freestyle 293-F; N-terminal SUMO, His6 cut with 3C; C-terminal Avi (CHSY3), 3C site and twin-Strep (CHPF2); heterodimer, expected 167 kDa; with Chondroitin sulfate glucuronyltransferase
T2 sequence (Q70JA7 157-882): T1 sequence (Q70JA7 157-882)
T2 sequence (Q9P2E5 57-772 partner): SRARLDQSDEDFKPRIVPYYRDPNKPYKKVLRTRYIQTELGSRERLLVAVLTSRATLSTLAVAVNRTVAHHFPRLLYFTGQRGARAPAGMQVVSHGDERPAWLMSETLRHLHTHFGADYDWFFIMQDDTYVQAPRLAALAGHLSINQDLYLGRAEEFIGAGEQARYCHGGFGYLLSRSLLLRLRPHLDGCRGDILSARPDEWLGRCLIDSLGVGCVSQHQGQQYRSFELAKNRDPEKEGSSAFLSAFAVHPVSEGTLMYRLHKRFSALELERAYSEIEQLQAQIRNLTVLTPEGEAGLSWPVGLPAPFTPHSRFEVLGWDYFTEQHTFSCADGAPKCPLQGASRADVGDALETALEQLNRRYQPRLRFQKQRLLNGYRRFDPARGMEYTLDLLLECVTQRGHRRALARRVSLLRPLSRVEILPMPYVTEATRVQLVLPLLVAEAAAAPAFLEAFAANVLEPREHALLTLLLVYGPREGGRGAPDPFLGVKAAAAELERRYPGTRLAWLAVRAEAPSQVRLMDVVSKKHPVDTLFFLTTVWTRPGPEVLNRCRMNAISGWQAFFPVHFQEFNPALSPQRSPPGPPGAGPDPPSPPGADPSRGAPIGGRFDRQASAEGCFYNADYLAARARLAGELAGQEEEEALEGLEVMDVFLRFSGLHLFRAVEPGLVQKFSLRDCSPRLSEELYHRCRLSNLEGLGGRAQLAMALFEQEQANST
As to the kind of experiment: FACE gel glycosylation assay. It is filed as biochemical. The settings on record: acceptor TAMRA-labelled Penta-CSF1 glycopeptide, Mn2+ and Mg2+, pH 6.5, 30 C.

The target of a further assay is T3, CHSY1-CHPF2 complex (Homo sapiens, UniProt Q86X52).
T3 construct: secreted luminal part of both chains (TM helix removed), HEK Freestyle 293-F; N-terminal SUMO, His6 cut with 3C; C-terminal Avi (CHSY1), 3C site and twin-Strep (CHPF2); heterodimer, expected 169 kDa; with Chondroitin sulfate glucuronyltransferase
T3 sequence (Q86X52 68-802): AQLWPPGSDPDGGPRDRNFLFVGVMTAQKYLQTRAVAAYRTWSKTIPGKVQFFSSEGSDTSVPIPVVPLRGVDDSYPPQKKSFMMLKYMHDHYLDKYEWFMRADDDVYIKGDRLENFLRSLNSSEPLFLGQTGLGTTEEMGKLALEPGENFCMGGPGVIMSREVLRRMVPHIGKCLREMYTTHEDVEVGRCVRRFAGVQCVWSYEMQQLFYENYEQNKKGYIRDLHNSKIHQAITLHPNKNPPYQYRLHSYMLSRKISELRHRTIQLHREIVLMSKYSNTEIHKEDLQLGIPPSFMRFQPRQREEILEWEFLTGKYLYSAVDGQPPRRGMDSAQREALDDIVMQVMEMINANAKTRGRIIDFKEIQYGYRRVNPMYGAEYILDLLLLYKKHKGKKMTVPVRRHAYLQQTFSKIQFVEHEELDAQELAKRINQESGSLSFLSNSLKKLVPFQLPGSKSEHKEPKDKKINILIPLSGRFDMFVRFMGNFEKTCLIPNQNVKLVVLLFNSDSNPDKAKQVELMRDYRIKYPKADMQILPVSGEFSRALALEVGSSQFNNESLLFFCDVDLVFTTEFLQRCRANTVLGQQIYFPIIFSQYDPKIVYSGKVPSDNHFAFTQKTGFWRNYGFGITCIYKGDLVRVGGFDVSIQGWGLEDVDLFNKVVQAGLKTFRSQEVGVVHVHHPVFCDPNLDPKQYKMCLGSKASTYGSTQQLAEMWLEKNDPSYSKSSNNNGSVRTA
T3 sequence (Q9P2E5 57-772 partner): T2 sequence (Q9P2E5 57-772 partner)
The assay is described as follows: FACE gel glycosylation assay. Particulars: acceptor TAMRA-labelled Penta-CSF1 glycopeptide, Mn2+ and Mg2+, pH 6.5, 30 C. It is filed as biochemical.

In another assay the target is T4, CHSY1-CHPF complex (Homo sapiens, UniProt Q86X52).
T4 construct: secreted luminal part of both chains (TM helix removed), HEK Freestyle 293-F; N-terminal SUMO, His6 cut with 3C; C-terminal Avi (CHSY1), 3C site and twin-Strep (CHPF); heterodimer, expected 167 kDa; with Chondroitin sulfate synthase 2
T4 sequence (Q86X52 68-802): T3 sequence (Q86X52 68-802)
T4 sequence (Q8IZ52 81-775 partner): T1 sequence (Q8IZ52 81-775 partner)
The assay is described as follows: FACE gel glycosylation assay. It is filed as biochemical. Particulars: acceptor TAMRA-labelled Penta-CSF1 glycopeptide, Mn2+ and Mg2+, pH 6.5, 30 C.

Assay [3] concerns the target T5, Chondroitin Sulfate Synthase-1 (CHSY1), secreted N-terminally truncated construct aa68-aa802 (human, UniProt Q86X52 68-802).
T5 construct: CHSY1, human, UniProt Q86X52, residues 68-802 (membrane-spanning helix removed); Construct in pHR-CMV-TetO2 with an N-terminal chicken RPTP sigma signal peptide, SUMO, 6x His and a 3C site; no cleavage site before the C-terminal Avi tag; source: Freestyle 293-F cells, co-transfected, secreted; purified from the supernatant (HisTrap, 3C protease, second HisTrap); not shown: SUMO, N-terminal, …
T5 sequence (looked up): T3 sequence (Q86X52 68-802)
As to the kind of experiment: mass photometry; Refeyn OneMP; purified complexes diluted in 20 mM MES pH 6.5, 150 mM NaCl to around 25 nM. Particulars: both partners purified.

Assay [4] has as its target T6, Chondroitin Sulfate Synthase-3 (CHSY3), secreted N-terminally truncated construct aa157-aa882 (human, UniProt Q70JA7 157-882).
T6 construct: CHSY3, human, UniProt Q70JA7, residues 157-882 (membrane-spanning helix removed); Construct in pHR-CMV-TetO2 with an N-terminal chicken RPTP sigma signal peptide, SUMO, 6x His and a 3C site; no cleavage site before the C-terminal Avi tag; source: Freestyle 293-F cells, co-transfected, secreted; purified from the supernatant (HisTrap, 3C protease, second HisTrap); not shown: SUMO, N-terminal, …
T6 sequence (looked up): T1 sequence (Q70JA7 157-882)
Described as above. Particulars: both partners purified.

Consider four molecules from publication PMC12748766, “Structural basis for human chondroitin sulfate chain polymerization” (Nature Communications, 2025).

On to `O=c1ccn([C@@H]2O[C@H](COP(=O)(O)OP(=O)(O)O)[C@@H](O)[C@H]2O)c(=O)[nH]1` [UDP], for which, at CHSY3-CHPF complex [1], the “cryo-EM structure, 3.0 A” value is given as “We identified one UDP molecule bound in the CHSY3 GlcA-T active site”.
With `O=C(O)[C@H]1O[C@H](OP(=O)(O)OP(=O)(O)OC[C@H]2O[C@@H](n3ccc(=O)[nH]c3=O)[C@H](O)[C@@H]2O)[C@H](O)[C@@H](O)[C@@H]1O` [UDP-GlcA], the “FACE gel glycosylation assay” value was “wild-type CHSY3-CHPF complex efficiently elongated the Penta-CSF1 and Hexa-CSF1 substrates into high molecular weight chains” at CHSY3-CHPF complex [2] (acceptor TAMRA-labelled Penta-CSF1 glycopeptide, co-donor UDP-GalNAc, N-terminal GT31 site of CHSY3); “All four purified CS polymerase complexes were able to elongate the CS chain” at CHSY3-CHPF2 complex (co-donor UDP-GalNAc); “All four purified CS polymerase complexes were able to elongate the CS chain” at CHSY1-CHPF2 complex (co-donor UDP-GalNAc); “All four purified CS polymerase complexes were able to elongate the CS chain” on CHSY1-CHPF complex (co-donor UDP-GalNAc).
Consider `CC(=O)N[C@H]1[C@@H](OP(=O)(O)OP(=O)(O)OC[C@H]2O[C@@H](n3ccc(=O)[nH]c3=O)[C@H](O)[C@@H]2O)O[C@H](CO)[C@H](O)[C@@H]1O` [UDP-GalNAc], for which the “FACE gel glycosylation assay” value was “wild-type CHSY3-CHPF complex efficiently elongated the Penta-CSF1 and Hexa-CSF1 substrates into high molecular weight chains” at CHSY3-CHPF complex [2] (acceptor TAMRA-labelled Hexa-CSF1 glycopeptide, co-donor UDP-GlcA, C-terminal GT7 site of CHSY3); “All four purified CS polymerase complexes were able to elongate the CS chain” at CHSY3-CHPF2 complex (co-donor UDP-GlcA); “All four purified CS polymerase complexes were able to elongate the CS chain” at CHSY1-CHPF2 complex (co-donor UDP-GlcA); “All four purified CS polymerase complexes were able to elongate the CS chain” on CHSY1-CHPF complex (co-donor UDP-GlcA).

B1: Chondroitin Polymerization Factor-2 (CHPF2), secreted N-terminally truncated construct aa57-aa772 (domain or fragment, human, UniProt Q9P2E5 57-772, looked up)
chain: T2 sequence (Q9P2E5 57-772 partner)
notes: CHPF2, human, UniProt Q9P2E5, residues 57-772 (membrane-spanning helix removed); Construct in pHR-CMV-TetO2 with an N-terminal chicken RPTP sigma signal peptide, SUMO, 6x His and a 3C site; a second 3C site stands before the C-terminal twin streptavidin tag; also called CSGlcA-T; source: Freestyle 293-F cells, co-transfected, secreted; purified from the supernatant (HisTrap, 3C protease, second …)
With B1, the binding result in assay [3] and in assay [4] was “binds” each time.
